Data taken from patent US12729377B2, “RNAi agents and compositions for inhibiting expression of angiopoietin-like 3 (ANGPTL3), and methods of use” (Arrowhead Pharmaceuticals, Inc., priority 2017, dated 2026).
In the oligonucleotide strings, read from the 5' end, every base follows the letter of its sugar. An asterisk marks phosphorothioate; unmarked linkages are phosphodiester. Other units and linkages are bracketed, terminal groups are in braces. A string of capitals states the bases alone. {NAG37} = tridentate N-acetyl-galactosamine targeting ligand, structure (NAG37)s; [invAb] = inverted abasic unit; m = 2'-O-methyl; f = 2'-fluoro

Columns and labels:
[1] = tested on: ANGPTL3 gene; test: Example 6: serum total cholesterol in mice; type: in vivo, C57bl/6 mice
Protocol: To assess the in vivo activity of additional ANGPTL3 RNAi agents that are designed to target position 304 on the ANGPTL3 gene, six- to eight-week-old female C57bl/6 mice were used. Pre-dose serum samples were taken at day −1 after a four hour fast. At day 1, each mouse was given a single subcutaneous administration of 200 μl containing 0.5 mg/kg (mpk) of an ANGPTL3 RNAi agent in D5W (dextrose in 5% water), or control (D5W) with no RNAi agent, according to the dosing groups recited in Table 25.
Each of the RNAi agents included a modified sequence and an N-acetyl-galactosamine-containing targeting ligand conjugated to the 5′ terminal end of the sense strand. (See Tables 3, 4, and 5 for modified sequences and targeting ligand structures). The injections were performed between the skin and muscle (i.e. subcutaneous injections) into the loose skin over the neck and shoulder area. Three (3) mice in each group were tested (n=3). Serum was collected on days 8, 15, 22, 30, and on day 43 for certain groups (i.e., Groups 1, 2, 5, and 10 only). Mice were fasted for four hours prior to each collection. ANGPTL3 protein levels in serum were measured by ELISA assay (R&D Systems), according to the manufacturer's recommendations. Triglycerides, total cholesterol, high-density lipoprotein (HDL), and low-density lipoprotein (LDL) in serum were measured on a Cobas® Integra 400 (Roche Diagnostics), according to the manufacturer's recommendations.
The ANGPTL3 protein levels, triglyceride levels, total cholesterol levels, HDL levels, and LDL levels for each animal were normalized. For normalization, the level of ANGPTL3 protein, triglyceride, HDL, and total cholesterol, respectively, for each animal at a time point, was divided by the pre-treatment level of expression in that animal (in this case at day −1) to determine the ratio of expression “normalized to pre-treatment.” Expression at a specific time point was then normalized to the D5W control group by dividing the “normalized to pre-treatment” ratio for an individual animal by the mean “normalized to pretreatment” ratio of all mice in the D5W control group.

[2] = tested on: ANGPTL3 gene; test: Example 12: serum triglycerides in LDLR knockout mice; type: in vivo, LDLR KO mice
Text: To evaluate the effect of RNAi agent administration in a disease model, mice having a genetic mutation for the LDL receptor (referred to herein as LDLR KO mice) were commercially obtained (The Jackson Laboratory). The LDLR KO mice are homozygous for the Ldlr^tm1Her mutation, and have elevated serum cholesterol levels, particularly when placed on a high fat diet. For three weeks prior to the onset of the study, thirty-nine (39) LDLR KO mice were placed on a high fat diet (Teklad Custom Diets TD.88137). An additional eight (8) LDLR KO mice were placed on a normal chow diet over the same three-week period. Pre-dose serum samples were taken on day −15 and day −1 after a four hour fast. At day 1, each mouse was given a single subcutaneous administration of 200 μl/30 g animal body weight containing the respective mg/kg dose of an ANGPTL3 RNAi agent in D5W (dextrose in 5% water), control (D5W) with no RNAi agent, or a control RNAi agent that included a nucleotide sequence designed to target the Hepatitis B Virus (HBV) genome. A second injection of the same formulation was administered to the animals on day 29. The dosing regimen for the study is recited in the following Table 60:
Each mouse remained on its respective diet through the duration of study. The RNAi agent tested (AD05488) included a modified sequence and an N-acetyl-galactosamine-containing targeting ligand conjugated to the 5′ terminal end of the sense strand. (See Tables 3, […] modified sequences and targeting ligand structures). The injections were performed between the skin and muscle (i.e. subcutaneous injections) into the loose skin over the neck and shoulder area. Serum was collected on days 8, 15, 22, 29 (pre-second dose), 36, 43, 50, and 57. LDLR KO mice were fasted for four hours prior to each collection. On day 15, four (4) LDLR KO mice from Groups 1, 2, and 3 (i.e., the groups being administered the high fat “Western” diet) were sacrificed after serum collection, and on day 29, an additional four (4) LDLR KO mice from Groups 1, 2, and 3 were sacrificed after serum collection, for the purpose of performing mRNA assessments.
ANGPTL3 protein levels in serum were measured by ELISA assay (R&D Systems), according to the manufacturer's recommendations. Triglycerides, total cholesterol, high-density lipoprotein (HDL), and low-density lipoprotein (LDL) in serum were measured on a Cobas® Integra 400 (Roche Diagnostics), according to the manufacturer's recommendations.
The ANGPTL3 protein levels, triglyceride levels, total cholesterol levels, HDL levels, and LDL levels for each animal were normalized. For normalization, respective levels of ANGPTL3 protein, TG, total cholesterol, HDL, or LDL for each animal at a time point was divided by the average pre-treatment level of expression in that animal (in this case the average of day −15 and day −1) to determine the ratio of expression “normalized to pre-treatment.”
Expression at a specific time point was then normalized to the D5W control group that was administered the same diet (i.e., either the high fat “Western” diet or the normal chow-fed diet) by dividing the “normalized to pre-treatment” ratio for an individual animal by the mean “normalized to pretreatment” ratio of all mice in the D5W control group on the respective same diet, resulting in expression for each time point normalized to that in the control group.

For “AD05488: RNAi agent duplex: antisense AM07235-AS, sense AM07234-SS (antisense mU*fA*mC*fUmGfAmUfCmAfAmAfUmAfUmGfUmUfGmAfG*mC; sense {NAG37}*[invAb]*mGmCmUmCmAmAmCmAfUfAfUmUmUmGmAmUmCmAmGmUmA*[invAb])”, the “Avg Chol (total cholesterol), normalized to pre-treatment and control” value (“Avg Chol (total cholesterol), normalized” below) ([1]; Day 8, 0.5 mg/kg single SC injection on day 1, n=3) was 0.782, the “Avg Chol (total cholesterol), normalized” value ([1]; Day 15, 0.5 mg/kg single SC injection on day 1, n=3) was 0.768 and the “Avg Chol (total cholesterol), normalized” value ([1]; Day 22, 0.5 mg/kg single SC injection on day 1, n=3) was 0.801. The “Avg Chol (total cholesterol), normalized” value ([1]; Day 30, 0.5 mg/kg single SC injection on day 1, n=3) was 0.961, the “Avg Chol (total cholesterol), normalized” value ([1]; Day 43, 0.5 mg/kg single SC injection on day 1, n=3) was 1.037 and the “reductions in TG levels” value ([2]; 3.0 mg/kg on days 1 and 29 (Groups 2 and 5), LDLR KO mice) was “significant reductions”. For the same substance, the “Avg TG (Triglycerides) Normalized to Pre-Treatment and Control (Diet Matched)” value (from here on “Avg TG (Triglycerides) Normalized”) ([2]; 3.0 mg/kg sc day 1, High Fat Diet, Day 8) was 0.121, the “Avg TG (Triglycerides) Normalized” value ([2]; 3.0 mg/kg sc day 1, High Fat Diet, Day 15) was 0.086 and the “Avg TG (Triglycerides) Normalized” value ([2]; 3.0 mg/kg sc day 1, High Fat Diet, Day 22) was 0.094. For the same substance, the “Avg TG (Triglycerides) Normalized” value ([2]; 3.0 mg/kg sc day 1, High Fat Diet, Day 29 (pre-second dose)) was 0.096, the “Avg TG (Triglycerides) Normalized” value ([2]; 3.0 mg/kg sc day 1, Normal Diet, Day 8) was 0.472 and the “Avg TG (Triglycerides) Normalized” value ([2]; 3.0 mg/kg sc day 1, Normal Diet, Day 15) was 0.503. For the same substance, the “Avg TG (Triglycerides) Normalized” value ([2]; 3.0 mg/kg sc day 1, Normal Diet, Day 22) was 0.473, the “Avg TG (Triglycerides) Normalized” value ([2]; 3.0 mg/kg sc day 1, Normal Diet, Day 29 (pre-second dose)) was 0.480 and the “Avg TG (Triglycerides) Normalized” value ([2]; 3.0 mg/kg sc days 1 and 29, High Fat Diet, Day 36) was 0.104. For the same substance, the “Avg TG (Triglycerides) Normalized” value ([2]; 3.0 mg/kg sc days 1 and 29, High Fat Diet, Day 43) was 0.084, the “Avg TG (Triglycerides) Normalized” value ([2]; 3.0 mg/kg sc days 1 and 29, High Fat Diet, Day 50) was 0.091 and the “Avg TG (Triglycerides) Normalized” value ([2]; 3.0 mg/kg sc days 1 and 29, High Fat Diet, Day 57) was 0.079. The “Avg TG (Triglycerides) Normalized” value ([2]; 3.0 mg/kg sc days 1 and 29, Normal Diet, Day 36) was 0.548, the “Avg TG (Triglycerides) Normalized” value ([2]; 3.0 mg/kg sc days 1 and 29, Normal Diet, Day 43) was 0.348 and the “Avg TG (Triglycerides) Normalized” value ([2]; 3.0 mg/kg sc days 1 and 29, Normal Diet, Day 50) was 0.625. The “Avg TG (Triglycerides) Normalized” value ([2]; 3.0 mg/kg sc days 1 and 29, Normal Diet, Day 57) was 0.438.
